{"source": "patent US12708629B2", "about": "“Methods and compositions for reducing parathyroid levels” (EIRGEN PHARMA LTD., priority 2010, dated 2026)", "key": {"[1]": {"experiment": "Expected rise of serum 25-hydroxyvitamin D3 in a human, stated after the mini-pig result", "type": "in vivo", "details": "single dose of 50 μg to a human (about 60 kg)"}, "[2]": {"experiment": "Single-dose pharmacokinetics of oral 25-hydroxyvitamin D3 formulations and IV injection in miniature swine (Example 1)", "type": "in vivo, Yucatan miniature swine", "method": "Nine oral vitamin D formulations were prepared according to Table 2 below by homogeneously mixing the identified components in the amounts shown and filling the mixtures into hard gelatin capsules. Formulation 9 is an immediate-release formulation according to the prior art, wherein MIGLYOL 812N is the trade name for caprylic/capric triglycerides, available from CONDEA Chemie GmbH of Cranford, New Jersey, USA. […] Each group included five animals.\nBlood was collected pre-dose, and at 0.5, 1, 2, 4, 6, 8, 12, 24, 48, 96, 168, 240, 336, 432, 504, 576, and 672 hours post dosing. Serum 25-hydroxyvitamin D3 levels were assayed by Liquid Chromatography/Mass Spectrometry/Mass Spectrometry (LC MS/MS)."}, "clinical": {"experiment": "clinical", "details": "human, in vivo, 450 ug", "source_text": "(§1) The modified release dosage formulation was the same as formulation 7 in Table 2 herein, with the following exceptions: (1) a vegetable-based capsule was used in place of a gelatin capsule; (2) hard paraffin content was reduced to 20%; and (3) liquid paraffin (light mineral oil) content was increased to 30%.\n(§2) The bioavailability of the modified release dosage form was about 10% measured over the duration of the study (42 days)."}, "iPTH": {"tested_on": "iPTH", "experiment": "Example 8: iPTH in Stage 3 or 4 CKD subjects", "type": "in vivo, human", "details": "single dose: IV 448 μg or 450 μg MR", "source_text": "as §1, §2"}, "[3]": {"details": "Yucatan, minipig, serum, iv, 250 ug"}}}
{"molecule": "C=C1CC[C@H](O)C/C1=C/C=C1\\CCC[C@]2(C)[C@@H]([C@H](C)CCCC(C)(C)O)CC[C@@H]12", "note": "[25-hydroxyvitamin D3]", "values": [{"measurement": "expected increase of serum 25-hydroxyvitamin D3", "setting": "[1]", "value": "about 1.4 ng/ml"}, {"measurement": "AUC(0-inf)", "setting": "[2]; [3]", "value": 16600, "unit": "ng·h/mL"}, {"measurement": "Cmax", "setting": "[2]; [3]", "value": 155, "unit": "ng/mL"}, {"measurement": "Tmax", "setting": "[2]; [3]", "value": 1.5, "unit": "h"}, {"measurement": "AUC(0-t)", "setting": "[2]; Yucatan, minipig, serum, iv, 250 ug, read-out: AUC (0-672 hr)", "value": 15000, "unit": "ng·h/mL"}, {"measurement": "half-life", "setting": "[2]; Yucatan, minipig, serum, iv, 250 ug, read-out: T½ (converted)", "value": 132, "unit": "h"}, {"measurement": "BA", "setting": "[2]; single 250 μg dose, Group 10 IV injection = 100.0", "value": 100.0, "unit": "%"}, {"measurement": "Cmax", "setting": "clinical", "value": "134 ± 19", "unit": "ng/mL"}, {"measurement": "half-life", "setting": "clinical", "value": 1780, "unit": "h"}, {"measurement": "tmax, AVG", "setting": "clinical", "value": 0.49, "unit": "h"}, {"measurement": "Tmax", "setting": "clinical; AVG", "value": "0.5 ± 0.6", "unit": "h"}, {"measurement": "Tmax", "setting": "clinical; Median", "value": 0.25, "unit": "h"}, {"measurement": "effect on mean iPTH", "setting": "iPTH", "value": "minimal to no effect"}, {"measurement": "effect on mean iPTH", "setting": "iPTH; listed as IV calcifediol", "value": "no clinically meaningful effect"}]}
